{"source": "patent US20150143553A1", "about": "“Methods And Compositions Comprising A Drosophila Model Of Amyotrophic Lateral Sclerosis” (priority 2013, published 2015)", "note": "Where a name gives a salt, the structure may show the parent alone."}
{"system": "Drosophila larvae expressing wild-type TDP-43 in motor neurons", "assay": "Drug screen: rescue of lethality caused by wild-type TDP-43 expression in motor neurons (D42 Gal4)", "type": "in vivo", "conditions": "Wild-type TDP-43; 25 μM; out of 15-20 pupae", "text": "(§1) […] Larvae expressing TDP-43 (wild type or mutant, as shown) are raised on drug containing food.\n(§2) […] Larvae expressing TDP-43 (wt or mutant) were raised on drug containing food.\n(§3) Using a Drosophila model of ALS based on TDP-43 that recapitulates several aspects of the disease pathophysiology (33, 35), a drug screen aimed at identifying FDA approved compounds with neuroprotective potential in vivo were designed (FIG. 37A). […] This phenotype was used to screen for drug candidates with therapeutic potential as determined by their ability to rescue pupal lethality and produce viable adults with extended wings (FIG. 37A). […]\n(§4) UAS TDP-43 males were crossed with D42-Gal4 female virgins on fly food containing either DMSO or pioglitazone. For DMSO controls, the same volume of DMSO as the corresponding drug concentration was added. Bromophenol blue was added to a final concentration of approximately 0.02% to ensure homogeneity. Crosses were made on drug food with 3 female virgins and 2 males in each vial, and were maintained at 25° C. unless noted. The parents were discarded after 5-7 days then the vials were screened for adult progeny with straight wings from day 14 to day 25. All adults were screened for TDP-43 expression by visualizing the YFP tag. Total number of pupae was counted on day 25. Percent survival was calculated using the formula (total number of straight-winged adults/total number of pupae)×100. All experiments were performed in triplicate.", "units": {"Rescue Effect (out of 15-20 pupae) (drug conc.)": "adults"}}
{"smiles": "CN(C)C(=N)N=C(N)N", "note": "[Metformin]", "Rescue Effect (out of 15-20 pupae) (drug conc.)": 2}
{"system": "Drosophila larvae expressing wild-type TDP-43 in motor neurons", "assay": "Drug screen: rescue of lethality caused by wild-type TDP-43 expression in motor neurons (D42 Gal4)", "type": "in vivo", "conditions": "transgene WT2; 30 μM in fly food", "text": "as §1, §2, §3, §4"}
{"smiles": "CC(C)(C(=O)O)c1ccc(C(O)CCCN2CCC(C(O)(c3ccccc3)c3ccccc3)CC2)cc1", "note": "(stereo not shown) [Fexofenadine Hcl]", "Preliminary rescue result: adults with normal wings": "1 Adult Normal Wings Adults"}
{"smiles": "CCC(=O)O[C@]1(C(=O)SCF)[C@H](C)C[C@H]2[C@@H]3C[C@H](F)C4=CC(=O)C=C[C@]4(C)[C@@]3(F)[C@@H](O)C[C@@]21C", "note": "[Fluticasone Propionate]", "Preliminary rescue result: adults with normal wings": "1 Adult Normal Wings Adults"}
{"smiles": "COc1ccc2c(c1)C(=O)N(CCc1ccc(S(=O)(=O)NC(=O)NC3CCCCC3)cc1)C(=O)C2(C)C", "note": "[Gliquidone]", "Preliminary rescue result: adults with normal wings": "7 Adult Normal Wings Adults"}
{"smiles": "Oc1c(Cl)cc(Cl)c(Cl)c1Cc1c(O)c(Cl)cc(Cl)c1Cl", "note": "[Hexachlorophene]", "Preliminary rescue result: adults with normal wings": "1 Adult Normal Wings Adults"}
{"smiles": "CC(CNC1CCCCC1)OC(=O)c1ccccc1", "note": "(stereo not shown) [Hexylcaine HCl]", "Preliminary rescue result: adults with normal wings": "6 Adults Normal Wings"}
{"smiles": "CC(C)Cn1cnc2c(N)nc3ccccc3c21", "note": "[Imiquimod]", "Preliminary rescue result: adults with normal wings": "2 Adult Normal Wings Adults"}
{"smiles": "C[C@H](O)C(=O)Nc1c(I)c(C(=O)NC(CO)CO)c(I)c(C(=O)NC(CO)CO)c1I", "note": "[Iopamidol]", "Preliminary rescue result: adults with normal wings": "3 Adult Normal Wings Adults"}
{"smiles": "COCC(=O)Nc1c(I)c(C(=O)NCC(O)CO)c(I)c(C(=O)N(C)CC(O)CO)c1I", "note": "(stereo not shown) [Iopromide]", "Preliminary rescue result: adults with normal wings": "1 Adult Normal Wings Adults"}
{"smiles": "O=C(c1ccccc1)c1ccc2n1CCC2C(=O)O", "note": "(stereo not shown) [Ketorolac Tromethamine]", "Preliminary rescue result: adults with normal wings": "2 Adult Normal Wings Adults"}
{"smiles": "CCC(=O)O[C@@](Cc1ccccc1)(c1ccccc1)[C@@H](C)CN(C)C", "note": "[Levopropoxyphene Napsylate]", "Preliminary rescue result: adults with normal wings": "2 Adult Normal Wings Adults"}
{"smiles": "N[C@@H](Cc1cc(I)c(Oc2ccc(O)c(I)c2)c(I)c1)C(=O)O", "note": "[Liothyronine]", "Preliminary rescue result: adults with normal wings": "3 Adult Normal Wings Adults"}
{"smiles": "C[C@H](CCC(=O)O)[C@H]1CC[C@H]2[C@@H]3CC[C@@H]4C[C@H](O)CC[C@]4(C)[C@H]3CC[C@]12C", "note": "[Lithocholic Acid]", "Preliminary rescue result: adults with normal wings": "7 Adult Normal Wings Adults"}
{"smiles": "O=c1cc(-c2ccc(O)c(O)c2)oc2cc(O)cc(O)c12", "note": "[Luteolin]", "Preliminary rescue result: adults with normal wings": "1 Adult Normal Wings Adults"}
{"smiles": "CCC1(c2ccccc2)NC(=O)N(C)C1=O", "note": "(stereo not shown) [Mephenytoin]", "Preliminary rescue result: adults with normal wings": "2/1"}
{"smiles": "CCCNC(C)(C)COC(=O)c1ccccc1", "note": "[Meprylcaine HCl]", "Preliminary rescue result: adults with normal wings": "1 Adult Normal Wings Adults"}
{"smiles": "CC[N+](C)(CC)CCOC(=O)C1c2ccccc2Oc2ccccc21", "note": "[Methantheline Bromide]", "Preliminary rescue result: adults with normal wings": "1 Adult Normal Wings Adults"}
{"smiles": "Cn1cc[nH]c1=S", "note": "[Methimazole]", "Preliminary rescue result: adults with normal wings": "1 Adult Normal Wings Adults"}
{"smiles": "C[N+]1(C)[C@@H]2CC[C@H]1C[C@@H](OC(=O)C(CO)c1ccccc1)C2", "note": "(stereo partly shown) [Methylatropine Nitrate]", "Preliminary rescue result: adults with normal wings": "2 Adult Normal Wings Adults"}
{"smiles": "CC(=O)N[C@@H](CC(C)C)C(=O)O", "note": "[N-Acetyl-L-Leucine]", "Preliminary rescue result: adults with normal wings": "1 Adult Normal Wings Adults"}
{"smiles": "CC1(C)NC(=O)N(c2ccc([N+](=O)[O-])c(C(F)(F)F)c2)C1=O", "note": "[Nilutamide]", "Preliminary rescue result: adults with normal wings": "11 Adult Normal Wings Adults"}
{"smiles": "CNC(=C[N+](=O)[O-])NCCSCc1csc(CN(C)C)n1", "note": "[Nizatidine]", "Preliminary rescue result: adults with normal wings": "2 Adult Normal Wings Adults"}
{"smiles": "Cc1nccn1CC1CCc2c(c3ccccc3n2C)C1=O", "note": "(stereo not shown) [Ondansetron Hcl]", "Preliminary rescue result: adults with normal wings": "1 Adult Normal Wings Adults"}
{"smiles": "C=CCOc1ccccc1OCC(O)CNC(C)C", "note": "(stereo not shown) [Oxprenolol Hcl]", "Preliminary rescue result: adults with normal wings": "1 Adult Normal Wings Adults"}
{"smiles": "COc1ccc(C(=O)c2ccccc2)c(O)c1", "note": "[Oxybenzone]", "Preliminary rescue result: adults with normal wings": "1 Adult Normal Wings Adults"}
{"smiles": "CCCCc1ccc2[nH]c(NC(=O)OC)nc2c1", "note": "[Parbendazole]", "Preliminary rescue result: adults with normal wings": "2/1"}
{"smiles": "CC(C)(C)NC[C@H](O)COc1ccccc1C1CCCC1", "note": "[Penbutolol Sulfate]", "Preliminary rescue result: adults with normal wings": "1 Adult Normal Wings Adults"}
{"smiles": "Nc1ccc(/N=N/c2ccccc2)c(N)n1", "note": "[Phenazopyridine Hydrochloride]", "Preliminary rescue result: adults with normal wings": "1 Adult Normal Wings Adults"}
{"smiles": "COc1cc([C@@H]2c3cc4c(cc3[C@H](O)[C@H]3COC(=O)[C@H]23)OCO4)cc(OC)c1OC", "note": "[Podophyllotoxin]", "Preliminary rescue result: adults with normal wings": "8 Adult Normal Wings Adults"}
{"smiles": "COc1cc2nc(N3CCN(C(=O)c4ccco4)CC3)nc(N)c2cc1OC", "note": "[Prazosin Hydrochloride]", "Preliminary rescue result: adults with normal wings": "1 Adult Normal Wings Adults"}
{"smiles": "CCOC(=O)O[C@]1(C(=O)COC(=O)CC)CC[C@H]2[C@@H]3CCC4=CC(=O)C=C[C@]4(C)[C@H]3[C@@H](O)C[C@@]21C", "note": "[Prednicarbate]", "Preliminary rescue result: adults with normal wings": "2 Adult Normal Wings Adults"}
{"smiles": "OC(CCN1CCCC1)(c1ccccc1)C1CCCCC1", "note": "(stereo not shown) [Procyclidine HCL]", "Preliminary rescue result: adults with normal wings": "1 Adult Normal Wings Adults"}
{"smiles": "CCCOc1cc(N)ccc1C(=O)OCCN(CC)CC", "note": "[Propoxycaine Hcl]", "Preliminary rescue result: adults with normal wings": "1 Adult Normal Wings Adults"}
{"smiles": "CCCc1cc(C(N)=S)ccn1", "note": "[Prothionamide]", "Preliminary rescue result: adults with normal wings": "1 Adult Normal Wings Adults"}
{"smiles": "CNCCCC1c2ccccc2C=Cc2ccccc21", "note": "[Protriptyline Hydrochloride]", "Preliminary rescue result: adults with normal wings": "1 Adult Normal Wings Adults"}
{"smiles": "CCOC(=O)[C@H](CCc1ccccc1)N[C@@H](C)C(=O)N1Cc2ccccc2C[C@H]1C(=O)O", "note": "[Quinapril Hcl]", "Preliminary rescue result: adults with normal wings": "2 Adult Normal Wings Adults"}
{"smiles": "COc1ccc2cc([C@@H](C)C(=O)[O-])ccc2c1.[Na+]", "note": "[R-Naproxen Na Salt]", "Preliminary rescue result: adults with normal wings": "2 Adult Normal Wings Adults"}
{"smiles": "CCOC(=O)[C@H](CCc1ccccc1)N[C@@H](C)C(=O)N1[C@H](C(=O)O)C[C@@H]2CCC[C@@H]21", "note": "[Ramipril]", "Preliminary rescue result: adults with normal wings": "1 Adult Normal Wings Adults"}
{"smiles": "CCC(=O)[C@@]1(C)[C@H](C)C[C@H]2[C@@H]3CCC4=CC(=O)C=C[C@]4(C)[C@H]3[C@@H](O)C[C@@]21C", "note": "[Rimexolone]", "Preliminary rescue result: adults with normal wings": "1 Adult Normal Wing Adults"}
{"system": "Drosophila larvae expressing wild-type TDP-43 in motor neurons", "assay": "Drug screen: rescue of lethality caused by wild-type TDP-43 expression in motor neurons (D42 Gal4)", "type": "in vivo", "conditions": "transgene WT2; 50 μM in fly food", "text": "as §1, §2, §3, §4"}
{"smiles": "O=C(COc1ccc(Cl)cc1)N1CCN(Cc2ccc3c(c2)OCO3)CC1", "note": "[Fipexide Hydrochloride]", "Preliminary rescue result: adults with normal wings": "1 Adult Normal Wings Adults"}
{"smiles": "OC(Cn1cncn1)(Cn1cncn1)c1ccc(F)cc1F", "note": "[Fluconazole]", "Preliminary rescue result: adults with normal wings": "1 Adult Normal Wings Adults"}
{"smiles": "C[C@]12CCC(=O)C=C1CC[C@H]1[C@@H]3CC[C@](O)(C(=O)CO)[C@@]3(C)C[C@H](O)[C@@]12F", "note": "[Fludrocortisone]", "Preliminary rescue result: adults with normal wings": "2 Adults Normal Wings"}
{"smiles": "CC(C(=O)O)c1cccc(C(=O)c2ccccc2)c1", "note": "(stereo not shown) [Ketoprofen]", "Preliminary rescue result: adults with normal wings": "1 Adult Normal Wings Adults"}
{"smiles": "COc1ccc2[nH]cc(CCNC(C)=O)c2c1", "note": "[Melatonin]", "Preliminary rescue result: adults with normal wings": "4 Adults Normal Wings"}
{"smiles": "O=S(=O)(O)CCS", "note": "[Mesna]", "Preliminary rescue result: adults with normal wings": "4 Adult Normal Wings Adults"}
{"smiles": "CC(=O)Nc1c(I)c(C(=O)N[C@H]2C(O)O[C@H](CO)[C@@H](O)[C@@H]2O)c(I)c(N(C)C(C)=O)c1I", "note": "(stereo partly shown) [Metrizamide]", "Preliminary rescue result: adults with normal wings": "2 Adults Normal Wings"}
{"smiles": "Cc1cc(-c2ccccc2)nnc1NCCN1CCOCC1", "note": "[Minaprine Dihydrochloride]", "Preliminary rescue result: adults with normal wings": "1 Adult Normal Wings Adults"}
{"smiles": "Cc1ccsc1/C=C/C1=NCCCN1C", "note": "[Morantel Tartrate]", "Preliminary rescue result: adults with normal wings": "1 Adult Normal Wings Adults"}
{"smiles": "CN(C)C(=O)Oc1cccc([N+](C)(C)C)c1", "note": "[Neostigmine Bromide]", "Preliminary rescue result: adults with normal wings": "5 Adults Straight Wings"}
{"smiles": "O=C1NCCN1c1ncc([N+](=O)[O-])s1", "note": "[Niridazole]", "Preliminary rescue result: adults with normal wings": "3 Adult Normal Wings Adults"}
{"smiles": "C#CCN(C)Cc1ccccc1", "note": "[Pargyline Hydrochloride]", "Preliminary rescue result: adults with normal wings": "1 Adult Normal Wings Adults"}
{"smiles": "CC(N)C(O)c1ccccc1", "note": "(stereo not shown) [Phenylpropanolamine Hydrochloride]", "Preliminary rescue result: adults with normal wings": "1 Adult: 1 Normal Wing Adults"}
{"smiles": "COc1cc(NC(C)CCCN)c2ncccc2c1", "note": "(stereo not shown) [Primaquine Diphosphate]", "Preliminary rescue result: adults with normal wings": "1 Adult Normal Wings Adults"}
{"smiles": "CCN1CCC[C@H]1CNC(=O)c1c(O)c(Cl)cc(Cl)c1OC", "note": "[Raclopride]", "Preliminary rescue result: adults with normal wings": "2 Adults Normal Wings"}
{"smiles": "CCOc1cc(CC(=O)N[C@@H](CC(C)C)c2ccccc2N2CCCCC2)ccc1C(=O)O", "note": "[Repaglinide]", "Preliminary rescue result: adults with normal wings": "1 Adult Normal Wings Adults"}
